Counter-ions that a name gives are not always drawn.
How the values were obtained:
[1] = target: T1, human recombinant TDO2 enzyme (Homo sapiens, UniProt P48775); assay: Assay for TDO2 enzymatic activity determination; type: biochemical; settings: human recombinant TDO2, L-Trp 1 mM, kynurenine absorbance at 480 nm
T1 construct: made in house
Experimental: To measure the TDO2 activity, the procedure described in Dolusic et al. J. Med. Chem.; 2011, 54, […] was adapted: the reaction mixture contained (final concentrations) potassium phosphate buffer (50 mM, pH 7.5), ascorbic acid (0.25 M), methylene blue (0.125 μM), catalase (40 units/mL, from bovine liver, Sigma), and human recombinant TDO2 enzyme (prepared as described in Dolusic et al. J. Med. Chem.; 2011, 54, 5320-5334; 0.9 μg) without or with the compounds of the present invention at the indicated concentrations (total volume 112.5 μL). The reaction was initiated by the addition of 37.5 μL of L-Trp (final concentration 1 mM) at room temperature. The reaction was conducted at room temperature during one hour and stopped by the addition of 30 μL of 30% (w/v) trichloroacetic acid.
To convert N-formylkynurenine into kynurenine, the reaction mixture was incubated at 65° C. for 30 min. Then 150 μL of the reaction mixture was mixed with 120 μL of 2.5% (w/v) 4-(dimethylamino)-benzaldehyde in acetic acid and incubated for 5 min at room temperature. Kynurenine concentrations were determined by measuring the absorbance at 480 nm. A standard curve was made with pure kynurenine. The TDO activity was measured as described above using ten serial concentrations of the compounds of the present invention. Data were fitted using the Prism™ software (GraphPad Software, Inc.) using standard parameters.

[2] = target: T2, human glioblastoma A172 cells, naturally expressing hTDO2 (Homo sapiens, UniProt P48775); assay: Cellular assay for TDO2 activity, A172 cells; type: cell-based; settings: overnight incubation, kynurenine in supernatant
T2 construct: human glioblastoma A172 cells, naturally expressing hTDO2; endogenous in cells; host or cells: human glioblastoma A172 cells (ATCC CRL-1620)
Experimental: The compounds of formula I inhibit the activity of human TDO2 in cells that constitutively express TDO2, such as A172 cells. A172 is a cell line derived from human brain glioblastoma cells. The cells are available from the American Type Culture Collection (ATCC®) as CRL-1620™
The assay (adapted from Pilotte L et al., Proc Natl Acad Sci USA, 2012, 109(7), 2497-502) was performed in 96-well flat bottom plates seeded with human glioblastoma A172 cells, naturally expressing hTDO2 (prepared as described in Tilman et al., Mol Cancer, 2007, 17(6), 80), at a concentration of 1.25×10^4 cells/well in a final volume of 200 μL. To determine TDO, the cells were incubated overnight at 37° C. at 5% CO2 in IMDM (Invitrogen) supplemented with 2% FBS and 2% penicillin/streptomycin in the presence of the compounds of the present invention, at different concentrations.
The plates were then centrifuged 5 min at 1000 rpm, and 100 μL of the supernatant were collected in a conical plate, 30 uL of TCA 30% were added and a further centrifugated at 3000×g for 10 minutes. 100 μL of the supernatant were collected in a flat bottomed plate and 100 μL of 2% (w/v) 4-(dimethylamino)-benzaldehyde in acetic acid and incubated for 5 min at room temperature. Kynurenine concentrations were determined by measuring the absorbance at 480 nm. A standard curve was made with pure kynurenine. The TDO activity was measured as described above using ten serial concentrations of the compounds of the present invention. Data were fitted using the Prism™ software (GraphPad Software, Inc.) using standard parameters.

T2 sequence (P48775 whole entry): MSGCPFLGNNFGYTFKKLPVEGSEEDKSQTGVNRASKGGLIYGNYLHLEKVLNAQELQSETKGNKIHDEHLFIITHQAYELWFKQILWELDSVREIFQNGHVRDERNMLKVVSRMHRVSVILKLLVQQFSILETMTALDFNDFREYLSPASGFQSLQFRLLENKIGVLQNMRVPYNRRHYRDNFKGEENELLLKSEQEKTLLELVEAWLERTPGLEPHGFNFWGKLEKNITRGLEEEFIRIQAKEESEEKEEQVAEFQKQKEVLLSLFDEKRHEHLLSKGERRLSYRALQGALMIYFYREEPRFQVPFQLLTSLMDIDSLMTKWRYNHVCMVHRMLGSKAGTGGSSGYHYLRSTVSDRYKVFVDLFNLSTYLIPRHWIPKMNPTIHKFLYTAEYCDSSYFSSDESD
T1 sequence (P48775 whole entry): as above

Structure (SMILES) | IC50 [1] [nM] | IC50 [2] [nM]
NC(=O)Cn1ncc2ccc(-c3c[nH]c4cc(F)ccc34)cc21 [Compound 2, 2-(6-(6-fluoro-1H-indol-3-yl)-1H-indazol-1-yl)acetamide] | 946 | –
Fc1ccc2c(-c3ccc4cnn(CC5CCNCC5)c4c3)c[nH]c2c1 [Compound 3, 6-(6-fluoro-1H-indol-3-yl)-1-(piperidin-4-ylmethyl)-1H-indazole hydrochloride] | 2120 | –
CC(=O)N1CCC(Cn2ncc3ccc(-c4c[nH]c5cc(F)ccc45)cc32)CC1 [Compound 4, 1-(4-((6-(6-fluoro-1H-indol-3-yl)-1H-indazol-1-yl)methyl)piperidin-1-yl)ethanone] | 3180 | –
NC(=O)CCn1ncc2ccc(-c3c[nH]c4cc(F)ccc34)cc21 [Compound 5, 3-(6-(6-fluoro-1H-indol-3-yl)-1H-indazol-1-yl)propanamide] | 1170 | –
Fc1ccc2c(-c3ccc4cnn(C5CCNCC5)c4c3)c[nH]c2c1 [Compound 6, 6-(6-fluoro-1H-indol-3-yl)-1-(piperidin-4-yl)-1H-indazole] | 7530 | –
CC(=O)N1CCC(n2ncc3ccc(-c4c[nH]c5cc(F)ccc45)cc32)CC1 [Compound 7, 1-(4-(6-(6-fluoro-1H-indol-3-yl)-1H-indazol-1-yl)piperidin-1-yl)ethanone] | 13800 | –
CC(=O)N1CCC(n2ncc3cc(-c4c[nH]c5cc(F)ccc45)ccc32)CC1 [Compound 14, 1-(4-(5-(6-fluoro-1H-indol-3-yl)-1H-indazol-1-yl)piperidin-1-yl)ethanone] | 2220 | –
NC(=O)Cn1cc2ccc(-c3c[nH]c4cc(F)ccc34)cc2n1 [Compound 15, 2-(6-(6-fluoro-1H-indol-3-yl)-2H-indazol-2-yl)acetamide] | 1160 | –
CC(=O)N1CCC(Cn2cc3ccc(-c4c[nH]c5cc(F)ccc45)cc3n2)CC1 [Compound 16, 1-(4-((6-(6-fluoro-1H-indol-3-yl)-2H-indazol-2-yl)methyl)piperidin-1-yl)ethanone] | 1990 | –
Fc1ccc2c(-c3ccc4cn(C5CCNCC5)nc4c3)c[nH]c2c1 [Compound 18, 6-(6-fluoro-1H-indol-3-yl)-2-(piperidin-4-yl)-2H-indazole] | 948 | –
CC(=O)N1CCC(n2cc3ccc(-c4c[nH]c5cc(F)ccc45)cc3n2)CC1 [Compound 19, 1-(4-(6-(6-fluoro-1H-indol-3-yl)-2H-indazol-2-yl)piperidin-1-yl)ethanone] | 2190 | –
CC(=O)N1CCC(Cn2cc3cc(-c4c[nH]c5cc(F)ccc45)ccc3n2)CC1 [Compound 21, 1-(4-((5-(6-fluoro-1H-indol-3-yl)-2H-indazol-2-yl)methyl)piperidin-1-yl)ethanone] | 2670 | –
NC(=O)CCc1nc2cc(-c3c[nH]c4cc(F)ccc34)ccc2[nH]1 [Compound 46, 3-(5-(6-fluoro-1H-indol-3-yl)-1H-benzo[d]imidazol-2-yl)propanamide] | 1330 | –
CS(=O)(=O)N1CCC(c2nc3ccc(-c4c[nH]c5cc(F)ccc45)cc3o2)CC1 [Compound 96, 6-(6-fluoro-1H-indol-3-yl)-2-(1-(methylsulfonyl)piperidin-4-yl)benzo[d]oxazole] | 2390 | 589
CN(C)CCS(=O)(=O)NCc1nc2ccc(-c3c[nH]c4cc(F)ccc34)cc2o1 [Compound 100, 2-(dimethylamino)-N-((6-(6-fluoro-1H-indol-3-yl)benzo[d]oxazol-2-yl)methyl)ethanesulfonamide] | 1460 | 345
CS(=O)(=O)CCc1nc2ccc(-c3c[nH]c4cc(F)ccc34)cc2o1 [Compound 101, 6-(6-fluoro-1H-indol-3-yl)-2-(2-(methylsulfonyl)ethyl)benzo[d]oxazole] | 1380 | 153
O=C(O)C1CN(CCc2nc3ccc(-c4c[nH]c5cc(F)ccc45)cc3o2)CCN1 (centres unmarked) [Compound 145, 4-(2-(6-(6-fluoro-1H-indol-3-yl)benzo[d]oxazol-2-yl)ethyl)piperazine-2-carboxylic acid] | – | 26000
Fc1ccc2c(-c3ccc4ccoc4c3)c[nH]c2c1 [Compound 146, 3-(benzofuran-6-yl)-6-fluoro-1H-indole] | – | 520

The remaining compounds from weak to strong by IC50 [1], led by results:

IC50 [1] [nM] | IC50 [2] [nM] | Structure (SMILES)
935 | – | NC(=O)CCn1cc2ccc(-c3c[nH]c4cc(F)ccc34)cc2n1 [Compound 17, 3-(6-(6-fluoro-1H-indol-3-yl)-2H-indazol-2-yl)propanamide]
924 | – | CC(=O)N1CCC(n2cc3cc(-c4c[nH]c5cc(F)ccc45)ccc3n2)CC1 [Compound 24, 1-(4-(5-(6-fluoro-1H-indol-3-yl)-2H-indazol-2-yl)piperidin-1-yl)ethanone]
913 | 223 | CN1CCN(CCc2nc3ccc(-c4c[nH]c5cc(F)ccc45)cc3o2)CC1 [Compound 105, 6-(6-fluoro-1H-indol-3-yl)-2-(2-(4-methylpiperazin-1-yl)ethyl)benzo[d]oxazole]
835 | 261 | NC(=O)NCc1nc2ccc(-c3c[nH]c4cc(F)ccc34)cc2o1 [Compound 102, 1-((6-(6-fluoro-1H-indol-3-yl)benzo[d]oxazol-2-yl)methyl)urea]
814 | 326 | O=S(=O)(CCO)NCc1nc2ccc(-c3c[nH]c4cc(F)ccc34)cc2o1 [Compound 106, N-((6-(6-fluoro-1H-indol-3-yl)benzo[d]oxazol-2-yl)methyl)-2-hydroxyethanesulfonamide]
716 | 284 | O=C1Cc2cc(-c3c[nH]c4cc(F)ccc34)ccc2N1 [Compound 97, 5-(6-fluoro-1H-indol-3-yl)indolin-2-one]
709 | 517 | NC(=O)CCn1ncc2cc(-c3c[nH]c4cc(F)ccc34)ccc21 [Compound 12, 3-(5-(6-fluoro-1H-indol-3-yl)-1H-indazol-1-yl)propanamide]
680 | – | CC(=O)N1CCC(Cn2ncc3cc(-c4c[nH]c5cc(F)ccc45)ccc32)CC1 [Compound 11, 1-(4-((5-(6-fluoro-1H-indol-3-yl)-1H-indazol-1-yl)methyl)piperidin-1-yl)ethanone]
645 | 147 | NC(=O)Cn1ncc2cc(-c3c[nH]c4cc(F)ccc34)ccc21 [Compound 9, 2-(5-(6-fluoro-1H-indol-3-yl)-1H-indazol-1-yl)acetamide]
609 | – | Fc1ccc2c(-c3ccc4[nH]ncc4c3)c[nH]c2c1 [Compound 8, 5-(6-fluoro-1H-indol-3-yl)-1H-indazole]
539 | 176 | NC(=O)CCn1cc2cc(-c3c[nH]c4cc(F)ccc34)ccc2n1 [Compound 22, 3-(5-(6-fluoro-1H-indol-3-yl)-2H-indazol-2-yl)propanamide]
489 | 293 | Nc1nc2ccc(-c3c[nH]c4cc(F)ccc34)cc2o1 [Compound 98, 6-(6-fluoro-1H-indol-3-yl)benzo[d]oxazol-2-amine]
427 | – | Fc1ccc2c(-c3ccc4c(cnn4CC4CCNCC4)c3)c[nH]c2c1 [Compound 10, 5-(6-fluoro-1H-indol-3-yl)-1-(piperidin-4-ylmethyl)-1H-indazole]
421 | 169 | NC(=O)Cn1cc2cc(-c3c[nH]c4cc(F)ccc34)ccc2n1 [Compound 20, 2-(5-(6-fluoro-1H-indol-3-yl)-2H-indazol-2-yl)acetamide]
407 | – | Fc1ccc2c(-c3ccc4c(cnn4C4CCNCC4)c3)c[nH]c2c1 [Compound 13, 5-(6-fluoro-1H-indol-3-yl)-1-(piperidin-4-yl)-1H-indazole]
322 | – | Fc1ccc2c(-c3ccc4nn(C5CCNCC5)cc4c3)c[nH]c2c1 [Compound 23, 5-(6-fluoro-1H-indol-3-yl)-2-(piperidin-4-yl)-2H-indazole]
188 | – | Fc1ccc2c(-c3ccc4[nH]cnc4c3)c[nH]c2c1 [Compound 25, 5-(6-fluoro-1H-indol-3-yl)-1H-benzo[d]imidazole]
